Legend:
Assay type in all cases: cell-based
[1] = tested on: K562 cells (chronic myeloid leukemia cells) [만성 골수성 백혈병 세포(K562)]; test: Cell viability (CCK-8) in CML cells K562; conditions: K562 vs U937 or KG-1α; 0.5, 1, 2 and 4 mM; 24 h; in words, not shown in Table 1
[2] = tested on: KG-1α cells (refractory or relapsed acute myeloid leukemia cells) [불응성 또는 재발성 급성 골수성 백혈병 세포(KG-1α)]; test: Cell viability (CCK-8) in refractory/relapsed AML cells KG-1α; conditions: for viability at 500 µM / viability at 1000 µM / viability at 2000 µM / viability at 4000 µM: Homo sapiens, KG-1, 24 h, read-out: cell viability; for cell killing effect: KG-1α, 0.5, 1, 2 and 4 mM, 24 h, in words
[3] = tested on: KG-1α cells (refractory or relapsed acute myeloid leukemia cells) [불응성 또는 재발성 급성 골수성 백혈병 세포(KG-1α)]; test: Change of mitochondrial oxygen consumption rate in KG-1α cells; conditions: 0, 0.5, 1, 2, 4 mM, 20 min, FIG. 2, in words
[4] = tested on: KG-1α cells (refractory or relapsed acute myeloid leukemia cells) [불응성 또는 재발성 급성 골수성 백혈병 세포(KG-1α)]; test: Change of ATP production in KG-1α cells (ATPlite 1step kit); conditions: 4 mM, 20 min, 37℃, control PBS, FIG. 3, in words
[5] = tested on: U937 cells (acute myeloid leukemia cells) [급성 골수성 백혈병 세포(U937)]; test: cells; conditions: for cell killing effect: acute leukemia cells (U937), 0.5, 1, 2 and 4 mM, 24 h, in words
[6] = Homo sapiens, U-937, 24 h, read-out: cell viability

Structure (SMILES) | cell killing effect in K562 compared with U937 or KG-1α [1] | viability at 500 µM [2] | viability at 1000 µM [2] | viability at 2000 µM [2] | viability at 4000 µM [2] | cell killing effect [2] | oxygen consumption rate [3] | ATP production [4] | cell killing effect [5] | viability at 500 µM [5, 6] | viability at 1000 µM [5, 6] | viability at 2000 µM [5, 6] | viability at 4000 µM [5, 6]
C#CCN(C)[C@H](C)Cc1ccccc1 [셀레질린, selegiline] | 만성 골수성 백혈병 세포(K562)에 대한 세포 사멸 효과 보다는 급성 골수성 백혈병 세포(U937) 또는 불응성 또는 재발성 급성 골수성 백혈병 세포(KG-1α)에 대한 세포 사멸 효과가 우수하였다 | 93.1% | 86% | 63% | 51.8% | 세포 사멸 효과가 우수하게 나타남 | 산소 소모율이 농도 의존적으로 감소함 | ATP 생성이 감소됨 | 세포 사멸 효과를 모두 나타내는 것 | – | – | – | –
Nc1ccn([C@@H]2O[C@H](CO)[C@@H](O)[C@@H]2O)c(=O)n1 [시타라빈] | – | 95.2% | 96.9% | 97.7% | 95.3% | 세포 사멸 효과를 나타내지 않은 | – | – | 세포 사멸 효과는 우수하였으나 | 45.3% | 43.9% | 40.9% | 40.7%
